According to patent US20050256081A1, “Tetracycline derivatives for the treatment of ocular pathologies” (priority 2004, published 2005):
Several values for one entry are separate records, joined by “and”; a condition that tells them apart may be missing. Identical values can stand only once.

Columns and labels:
[1] = test system: corneal neovascularization; experiment: Silver nitrate cauterization corneal neovascularization model, two drug combinations (Example 3); type: in vivo, Long Evans rats; conditions: for effect on corneal neovascularization, individual agents: flurbiprofen 0.03% w/v, LMWH 10 mg/ml, administered as individual agents, data not shown
Description: Artificial corneal burns were induced in thirty-two eyes belonging to thirty-two Long Evans rats to determine the effects of doxycycline or another tetracycline derivative and low molecular weight heparin, doxycycline or another tetracycline derivative, and flurbiprofen, or flurbiprofen and low molecular weight heparin, on corneal neovascularization. All the eyes were examined to exclude any eyes with corneal scars and/or neovascularization prior to induction.
(§1) Neovascularization was induced in all eyes using silver nitrate cauterization. The animals were first anesthetized by intraperitoneal injection of a mixture of ketamine hydrochloride (25 mg/kg) with xylazine hydrochloride (5 mg/kg). The cornea was then anesthetized by a drop of 0.5% proparacaine and allowed to dry.
Group 1 (number of animals, n=8) received a 1:1 combination of 0.03% flurbiprofen sodium ophthalmic solution (Allergan, Irvine CA) and 10 mg/ml low molecular weight heparin (Enoxaparin, Aventis Pharmaceuticals Inc., Bridgewater N.J.); an actual concentration of 0.015% flurbiprofen with 5 mg/ml low molecular weight heparin. […] Group 3 (n=8) received a 1:1 combination of 20 mg/ml doxycycline and 10 mg/ml low molecular weight heparin; an actual concentration of 10 mg/ml doxycycline with 5 mg/ml low molecular weight heparin. Group 4 (n=8) received balanced salt solution (control). The drops were applied topically immediately after cauterization; treatments were administered two times per day for seven days.
(§2) The presence of new vessels (neovascularization) and the extent of new vessel formation was assessed by slit lamp photography and histology. Inhibition of vessel proliferation was evaluated by measuring vessel progression from the outer cornea (corneal limbus) into the comea. As previously described, it will be appreciated that any reduction of new vessel proliferation and/or regression of existing vessels is therapeutic, and that complete inhibition and/or regression is not required, and also that reduction includes regression of existing vessels.
The extent of corneal neovascularization was determined by slit lamp microscopy with photography (SL-7E, Topcon, Tokyo Japan) on day seven after cauterization. The animals were euthanized in a carbon dioxide chamber under deep general anesthesia. […]
Corneal neovascularization was assessed by scanning (Cano scan 9900F, Canon, Tokyo Japan) the slit lamp photographs into high resolution digital images. […] The percentage area of the cornea covered by the corneal scar in each eye was also determined. […]
Statistical analysis was performed using Statistical Analysis System (SPSS 11.5) software. The difference between the groups was determined using Mann-Whitney U Analysis test; a p value less than 0.05 was considered significant.

[2] = test system: corneal neovascularization; experiment: Silver nitrate cauterization corneal neovascularization model, single agents (Example 5); type: in vivo, Long Evans pigmented rats; conditions: for NV area compared to the control group (statistical significance): GLM with Tukey's studentized range test, significance at p≦0.05; for neovascularization on digitally enhanced slit lamp photograph: seven days after induction of corneal burn, FIG. 11; for Percent Area Of Neovascularization Mean ± SD: topical two times daily for 7 days, 7th day, ascomycin 50 μg/ml, flurbiprofen 0.03%, doxycycline 20 mg/ml, LMWH 10 mg/ml, triamcinolone acetonide 4 mg/ml
[3] = test system: corneal neovascularization; experiment: Inhibition of corneal neovascularization after silver nitrate/potassium nitrate corneal burn, graded by slit lamp photography and histology (Example 1); type: in vivo, rat; conditions: agent alone, topically applied twice a day; doxycycline about 1 to about 20 mg/ml, low molecular weight heparin about 10 mg/ml, triamcinolone about 4 mg/ml; compared to controls
Method: Artificial corneal burns were induced in rat eyes to determine the effects of doxycycline, steroids, and low molecular weight heparin, alone and in combinations, on corneal neovascularization.
The presence of new vessels (neovascularization) and the extent of new vessel formation was assessed by split lamp photography and histology. Inhibition of vessel proliferation was evaluated by measuring vessel progression from the outer cornea (corneal limbus) into the cornea. A numerical rating system was used to quantitate the degree of inhibition (+, ++, and +++ inhibition), with “+ inhibition” indicating inhibition one-third of the distance from the limbus of the cornea to the center; “++ inhibition” indicating inhibition two-thirds of the distance from the limbus to the center; “+++ inhibition” indicating complete inhibition of vessels between the limbus and the center; and the designation “± inhibition” indicating an intermediate degree of inhibition (e.g, less than +, ++, or +++) .

[4] = test system: corneal neovascularization; experiment: Silver nitrate cauterization corneal neovascularization model, doxycycline concentrations and pH (Example 4); type: in vivo, Long Evans pigmented rats; conditions: for Percent area of neovascularization (Mean ± SD): topical two times per day for seven days, n=6, monohydrate
Description: Thirty-six eyes belonging to thirty-six male Long Evans pigmented rats (200 g to 250 g) were divided into […] groups. Treated eyes were topically administered doxycycline at the following concentrations and having the indicated pH values: 0.05%^w/v (pH 3.3), 0.1%^w/v (pH 3.1), 1%^w/v (pH 2.3), 2%^w/v (pH 2.1), 2%^w/v (adjusted to pH of 7.4). One eye of each animal served as a treated eye and the other eye served as a non-treated control eye. Artificial corneal bums were induced. All the eyes were examined to exclude any eyes with corneal scars and/or neovascularization prior to induction.
as §1
as §2, with “cornea.” for “comea.”, “indudes” for “includes”
Neovascularization was evaluated by an examiner who was blinded as to the treatment groups to minimize the observer bias.
The animals were euthanized in a carbon dioxide chamber under deep general anesthesia. The eyes were enucleated and fixed in 10% formaldehyde.
Corneal neovascularization was assessed by scanning (Cano scan 9900F, Canon, Tokyo Japan) the slit lamp photographs into high resolution digital images. […] The percentage area of the cornea covered by the corneal scar in each eye was also determined. A drawing of corneal blood vessels was made to compare with digital photos and ensure that no vascular area was omitted during calculation of percent area.
Statistical analyses were performed using each animal as an experimental unit with Statistical Analysis System (SPSS 11.5) software. Kruscal-Vallis and Mann-Whitney U Analysis was conducted and treatment means were separated at p<0.05 with least significant difference (LSD) test. A p value <0.05 was considered significant.
For histopathologic evaluation, sedated animals were euthanized with inhaled CO2 and enucleation was performed immediately. […] The eyes were prepared for histological examination using 10% formaldehyde. […] The corneas were then soaked in xylene and paraffin, and later embedded in paraffin and cut at […] for staining with hematoxylin and eosin (H&E) for light microscopy.
Light microscopic examination was performed on every microscopic section.

CC(C(=O)[O-])c1ccc(-c2ccccc2)c(F)c1.O.O.[Na+] (racemic) [flurbiprofen, sodium (±)-2-(2-fluoro-4-biphenylyl)-propionate dihydrate]
effect on corneal neovascularization, individual agents [1]: did not significantly decrease corneal neovascularization
NV area compared to the control group (statistical significance) [2]: no statistically significant differences
neovascularization on digitally enhanced slit lamp photograph [2]: neovascularization is quite prominent
Percent Area Of Neovascularization Mean ± SD ([2]; dihydrate): 50.5%±18.7%
Percent Area Of Neovascularization Mean ± SD ([2]; listed as Flurbiprofen, dihydrate): 50.6 ± 18.7%

CC[C@@H]1/C=C(\C)C[C@H](C)C[C@H](OC)[C@H]2O[C@@](O)(C(=O)C(=O)N3CCCC[C@H]3C(=O)O[C@H](/C(C)=C/[C@@H]3CC[C@@H](O)[C@H](OC)C3)[C@H](C)[C@@H](O)CC1=O)[C@H](C)C[C@@H]2OC [ascomycin]
NV area compared to the control group (statistical significance) [2]: no statistically significant differences
Percent Area Of Neovascularization Mean ± SD [2]: 56.0%±22.4%
Percent Area Of Neovascularization Mean ± SD ([2]; listed as Ascomycin): 56.0 ± 22.4%

CC1c2cccc(O)c2C(=O)C2=C(O)C3(O)C(=O)C(C(N)=O)=C(O)C(N(C)C)C3C(O)C21.O (centres unmarked) [doxycycline, 4-(dimethylamino)-1,4,4a,5,5a,6,11,12a-octahydro3,5,10,12,12a-pentahydroxy-6-methyl-1,11-dioxo-2-naphthacenecarboxamide monohydrate]
effect on corneal neovascularization, individual agent ([1]; doxycycline administered at 10 mg/ml): not when administered at 10 mg/ml
effect on corneal neovascularization, individual agent ([1]; doxycycline administered at 20 mg/ml): did significantly inhibit
NV area compared to the control group (statistical significance) [2]: significant reduction
neovascularization on digitally enhanced slit lamp photograph [2]: neovascularization is less prominent than in control group
Percent Area Of Neovascularization Mean ± SD ([2]; listed as Doxycycline, monohydrate): 35.5 ± 29.1%
Percent Area Of Neovascularization Mean ± SD ([2]; monohydrate): 35.5%±29.1%
inhibition of neovascularization [3]: +
histology (H&E), new vessels and inflammatory cells ([4]; 0.05% doxycycline, FIG. 8A): new vessels and inflammatory cells through the entire corneal stroma
Percent area of neovascularization (Mean ± SD) ([4]; 0.05% w/v doxycycline, pH 3.3, listed as Doxycycline): 69.83 ± 17.98%
Percent area of neovascularization (Mean ± SD) ([4]; 0.05% w/v doxycycline, pH 3.3): 69.8±17.9%
histology (H&E), new vessels and inflammatory cells ([4]; 0.1% doxycycline, FIG. 8B): new vessels and inflammatory cells through the entire corneal stroma
Percent area of neovascularization (Mean ± SD) ([4]; 0.1% w/v doxycycline, pH 3.1, listed as Doxycycline): 64.48 ± 14.04%
Percent area of neovascularization (Mean ± SD) ([4]; 0.1% w/v doxycycline, pH 3.1): 64.5±14.0%
histology (H&E), new vessels and inflammatory cells ([4]; 1% doxycycline, FIG. 8C): inflammatory cells and there was neovascularization in the stroma far from the corneal burn
Percent area of neovascularization (Mean ± SD) ([4]; 1% w/v doxycycline, pH 2.3, listed as Doxycycline): 56.35 ± 20.84%
Percent area of neovascularization (Mean ± SD) ([4]; 1% w/v doxycycline, pH 2.3): 56.3±20.8%
histology (H&E), new vessels and inflammatory cells ([4]; 2% doxycycline adjusted to a substantially neutral pH, FIG. 8E): fewer inflammatory cells and less neovascularization in the stroma than eyes administered 1% doxycycline
histology (H&E), new vessels and inflammatory cells ([4]; 2% doxycycline not pH adjusted, FIG. 8D): fewer inflammatory cells and less neovascularization in the stroma than eyes administered 1% doxycycline
mean percentage area of neovascularization, 2% doxycycline pH neutralized compared with 2% doxycycline not adjusted for pH ([4]; 2% doxycycline, pH neutralized): significantly less
Percent area of neovascularization (Mean ± SD) ([4]; 2% w/v doxycycline adjusted to pH 7.4, listed as Doxycycline): 36.2 ± 4.3%
Percent area of neovascularization (Mean ± SD) ([4]; 2% w/v doxycycline adjusted to pH 7.4): 36.2±4.3%
Percent area of neovascularization (Mean ± SD) ([4]; 2% w/v doxycycline, pH 2.1 (not adjusted for pH), listed as Doxycycline): 54.78 ± 5.95%
Percent area of neovascularization (Mean ± SD) ([4]; 2% w/v doxycycline, pH 2.1 (not adjusted for pH)): 54.7±5.9%

low molecular weight heparin
effect on corneal neovascularization, individual agents [1]: did not significantly decrease corneal neovascularization
NV area compared to the control group (statistical significance) [2]: no statistically significant differences
Percent Area Of Neovascularization Mean ± SD [2]: 66.7%±9.9% and 66.7 ± 9.9%
inhibition of neovascularization [3]: +
